System: m-IMCD3 cells expressing PDE4 long forms
Assay: cAMP levels in PGE2-stimulated 3D m-IMCD3 cell culture media
Format: cell-based
Conditions: Mus musculus, mIMCD3; 3 μM test compound; compared to 100% for (DMSO + PGE2); read-out: cAMP level (% of PGE2-stimulated)
Protocol: HEK 293 and MDCK cells (Public Health England, Cell Culture Collections) were maintained in Dulbecco's Modified Eagle's Medium (DMEM) supplemented with 10% (v/v) fetal bovine serum (FBS) (Seralab), 2 mM L-glutamine and 100 U/mL penicillin streptomycin cocktail (ThermoFisher); termed complete media. Clonal HEK 293 cell lines were maintained in complete media supplemented with 0.6 mg/ml G418 (Enzo Life Sciences). Mouse inner medullary collecting duct (m-IMCD3) cells [American Type Culture Collection (ATCC)] were maintained in media consisting of DMEM/Hams F-12 50/50 Mix (DMEM F12; Corning) supplemented with penicillin streptomycin cocktail (100 U/mL) and FBS (10% v/v) (DMEM F12-10% FBS).
Activation of intracellular PDE4 long forms leads to a reduction of both intracellular cAMP and externalised cAMP (Omar et al., PNAS 116: 13320-13329, 2019). This reduction may be measured in the cell culture media supernatant of 3D cystic cell cultures, such as in the m-IMCD3 cell cyst suppression assay described in Experiment 3.
Following the completion of the m-IMCD3 cell cyst suppression assay (Experiment 3), the cAMP level in the assay media from individual or pooled assay wells was measured using a cAMP ELISA kit (Enzo Life Sciences) or a LANCE Ultra cAMP kit (PerkinElmer) according to the manufacturer's instructions.

| SMILES | activity at 3 µM [%] |
| --- | --- |
| O=C(CC1CCCC1)N1CCc2sc(N3C4CCC3CNC4)nc2C1 [Example 281, 1-(2-(3,8-diazabicyclo[3.2.1]octan-8-yl)-6,7-dihydrothiazolo[4,5-c]pyridin-5(4H)-yl)-2-cyclopentylethan-1-one] | 51 |
| CCN1CC2CCC(C1)N2c1nc2c(s1)CN(C(=O)CC1CCCC1)CC2 [Example 291, 2-cyclopentyl-1-(2-(3-ethyl-3,8-diazabicyclo[3.2.1]octan-8-yl)-6,7-dihydrothiazolo[5,4-c]pyridin-5(4H)-yl)ethan-1-one] | 45 |

System: m-IMCD3 cells
Assay: Inhibition of PGE2-stimulated in vitro cyst formation in m-IMCD3 cells
Format: cell-based, mouse
Conditions: Mus musculus, mIMCD3, 144 h, 3 μM; mean cyst area, 100% for (DMSO + PGE2) and 0% for DMSO control; 6 days of culture; read-out: % Cyst area after incubation with 3 μM test compound
Outline: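 Mean cyst area after 6 days, expressed relative to DMSO+PGE2 (100%) and DMSO alone (0%), from z-stack images. Mouse m-IMCD3 spheroids grew in collagen I/Matrigel gels and received PGE2 (100 nM final) with test compound (0.1% DMSO) starting 18–24 h post-plating, media refreshed at day 2 or 3.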

| SMILES | activity at 3 µM [%] |
| --- | --- |
| O=C(CC1CCCC1)N1CCc2sc(N3C4CCC3CNC4)nc2C1 [Example 281, 1-(2-(3,8-diazabicyclo[3.2.1]octan-8-yl)-6,7-dihydrothiazolo[4,5-c]pyridin-5(4H)-yl)-2-cyclopentylethan-1-one] | -9 |
| CCN1CC2CCC(C1)N2c1nc2c(s1)CN(C(=O)CC1CCCC1)CC2 [Example 291, 2-cyclopentyl-1-(2-(3-ethyl-3,8-diazabicyclo[3.2.1]octan-8-yl)-6,7-dihydrothiazolo[5,4-c]pyridin-5(4H)-yl)ethan-1-one] | 3 |
| O=C(COc1ccccc1OC(F)(F)F)N1CCc2nc(N3C4CCC3CNC4)sc2C1 [Example 164, 1-(2-(3,8-diazabicyclo[3.2.1]octan-8-yl)-6,7-dihydrothiazolo[5,4-c]pyridin-5(4H)-yl)-2-(2-(trifluoromethoxy)phenoxy)ethan-1-one] | -7 |
| O=C(C1Cc2ccccc2CO1)N1CCc2nc(N3C4CCC3CNC4)sc2C1 (stereo not shown) [Example 183, (2-(3,8-diazabicyclo[3.2.1]octan-8-yl)-6,7-dihydrothiazolo[5,4-c]pyridin-5(4H)-yl)(isochroman-3-yl)methanone] | 0 |
| O=C(c1cccc(F)c1)N1CCc2nc(N3C4CCC3CNC4)sc2C1 [Example 235, (2-(3,8-diazabicyclo[3.2.1]octan-8-yl)-6,7-dihydrothiazolo[5,4-c]pyridin-5(4H)-yl)(3-fluorophenyl)methanone] | -3 |
| O=C(c1ccccc1)N1CCc2nc(N3C4CCC3CNC4)sc2C1 [Example 193, (2-(3,8-diazabicyclo[3.2.1]octan-8-yl)-6,7-dihydrothiazolo[5,4-c]pyridin-5(4H)-yl)(phenyl)methanone] | -1 |
| O=C(c1ccc(F)nc1)N1CCc2nc(N3C4CCC3CNC4)sc2C1 [Example 200, (2-(3,8-diazabicyclo[3.2.1]octan-8-yl)-6,7-dihydrothiazolo[5,4-c]pyridin-5(4H)-yl)(6-fluoropyridin-3-yl)methanone] | 4 |
| CC(C)C(O)C(=O)N1Cc2sc(N3C4CCC3CNC4)nc2C(C)(C)C1 (stereo not shown) [Example 259, 1-(2-(3,8-diazabicyclo[3.2.1]octan-8-yl)-7,7-dimethyl-6,7-dihydrothiazolo[5,4-c]pyridin-5(4H)-yl)-2-hydroxy-3-methylbutan-1-one] | -6 |
| CCCN1CC2CCC(C1)N2c1nc2c(s1)CN(C(=O)CC1CCCC1)CC2 [Example 292, 2-cyclopentyl-1-(2-(3-propyl-3,8-diazabicyclo[3.2.1]octan-8-yl)-6,7-dihydrothiazolo[5,4-c]pyridin-5(4H)-yl)ethan-1-one] | 0 |
| COc1cc(C)ccc1C(=O)N1CCc2nc(N3C4CCC3CNC4)sc2C1 [Example 219, (2-(3,8-diazabicyclo[3.2.1]octan-8-yl)-6,7-dihydrothiazolo[5,4-c]pyridin-5(4H)-yl)(2-methoxy-4-methylphenyl)methanone] | 11 |
| Cc1cc(F)ncc1C(=O)N1CCc2nc(N3C4CCC3CNC4)sc2C1 [Example 242, (2-(3,8-diazabicyclo[3.2.1]octan-8-yl)-6,7-dihydrothiazolo[5,4-c]pyridin-5(4H)-yl)(6-fluoro-4-methylpyridin-3-yl)methanone] | 29 |
| CN1CC2CCC(C1)N2c1nc2c(s1)CN(C(=O)COc1ccc(F)cc1)CC2 [Example 301, 2-(4-fluorophenoxy)-1-(2-(3-methyl-3,8-diazabicyclo[3.2.1]octan-8-yl)-6,7-dihydrothiazolo[5,4-c]pyridin-5(4H)-yl)ethan-1-one] | -6 |
| O=C(N1CCc2nc(N3C4CCC3CNC4)sc2C1)C(F)(F)c1ccnc(F)c1 [Example 251, 1-(2-(3,8-diazabicyclo[3.2.1]octan-8-yl)-6,7-dihydrothiazolo[5,4-c]pyridin-5(4H)-yl)-2,2-difluoro-2-(2-fluoropyridin-4-yl)ethan-1-one] | -6 |
| O=C(c1coc2ccccc12)N1CCc2nc(N3C4CCC3CNC4)sc2C1 [Example 187, (2-(3,8-diazabicyclo[3.2.1]octan-8-yl)-6,7-dihydrothiazolo[5,4-c]pyridin-5(4H)-yl)(benzofuran-3-yl)methanone] | -8 |
| COc1nc(F)ccc1C(=O)N1CCc2nc(N3C4CCC3CNC4)sc2C1 [Example 240, (2-(3,8-diazabicyclo[3.2.1]octan-8-yl)-6,7-dihydrothiazolo[5,4-c]pyridin-5(4H)-yl)(6-fluoro-2-methoxypyridin-3-yl)methanone] | -3 |
| O=C(c1ccc(F)cc1F)N1CCc2nc(N3C4CCC3CNC4)sc2C1 [Example 212, (2-(3,8-diazabicyclo[3.2.1]octan-8-yl)-6,7-dihydrothiazolo[5,4-c]pyridin-5(4H)-yl)(2,4-difluorophenyl)methanone] | 0 |
| O=C(C1COc2ccccc2C1)N1CCc2nc(N3C4CCC3CNC4)sc2C1 (stereo not shown) [Example 182, (2-(3,8-diazabicyclo[3.2.1]octan-8-yl)-6,7-dihydrothiazolo[5,4-c]pyridin-5(4H)-yl)(chroman-3-yl)methanone] | 1 |

Same assay, conditions: Mus musculus, mIMCD3, 144 h, 10 μM; mean cyst area, 100% for (DMSO + PGE2) and 0% for DMSO control; 6 days of culture; read-out: % Cyst area after incubation with 10 μM test compound

| SMILES | activity at 10 µM [%] |
| --- | --- |
| Cc1cc(F)ccc1OCC(=O)N1CCc2nc(N3C4CCC3CNC4)sc2C1 [Example 145, 1-(2-(3,8-diazabicyclo[3.2.1]octan-8-yl)-6,7-dihydrothiazolo[5,4-c]pyridin-5(4H)-yl)-2-(4-fluoro-2-methylphenoxy)ethan-1-one] | 17 |
| O=C(N1CCc2nc(N3C4CCC3CNC4)sc2C1)C1(F)CCCC1 [Example 151, (2-(3,8-diazabicyclo[3.2.1]octan-8-yl)-6,7-dihydrothiazolo[5,4-c]pyridin-5(4H)-yl)(1-fluorocyclopentyl)methanone] | 5 |
| O=C(Cc1ccc(F)cc1F)N1CCc2nc(N3C4CCC3CNC4)sc2C1 [Example 144, 1-(2-(3,8-diazabicyclo[3.2.1]octan-8-yl)-6,7-dihydrothiazolo[5,4-c]pyridin-5(4H)-yl)-2-(2,4-difluorophenyl)ethan-1-one] | 13 |
| O=C(N1CCc2nc(N3C4CCC3CNC4)sc2C1)N1CCC2(CCCC2)C1 [Example 122, (2-(3,8-diazabicyclo[3.2.1]octan-8-yl)-6,7-dihydrothiazolo[5,4-c]pyridin-5(4H)-yl)(2-azaspiro[4.4]nonan-2-yl)methanone] | -8 |
| O=C(CC1CCC(F)(F)CC1)N1CCn2nc(N3C4CCC3CNC4)cc2C1 [Example 71, 1-(2-(3,8-diazabicyclo[3.2.1]octan-8-yl)-6,7-dihydropyrazolo[1,5-a]pyrazin-5(4H)-yl)-2-(4,4-difluorocyclohexyl)ethan-1-one] | -3 |
| O=C(NC1CCC(F)(F)CC1)N1CCc2nc(N3C4CCC3CNC4)sc2C1 [Example 58, 2-(3,8-diazabicyclo[3.2.1]octan-8-yl)-N-(4,4-difluorocyclohexyl)-6,7-dihydrothiazolo[5,4-c]pyridine-5(4H)-carboxamide] | -3 |
| COc1ccccc1CC(=O)N1CCc2nc(N3C4CCC3CNC4)sc2C1 [Example 139, 1-(2-(3,8-diazabicyclo[3.2.1]octan-8-yl)-6,7-dihydrothiazolo[5,4-c]pyridin-5(4H)-yl)-2-(2-methoxyphenyl)ethan-1-one] | -1 |
| O=C(COC1CCCC1)N1CCc2nc(N3C4CCC3CNC4)sc2C1 [Example 149, 1-(2-(3,8-diazabicyclo[3.2.1]octan-8-yl)-6,7-dihydrothiazolo[5,4-c]pyridin-5(4H)-yl)-2-(cyclopentyloxy)ethan-1-one] | -2 |
| O=C(N1CCc2nc(N3C4CCC3CNC4)sc2C1)C1(c2ccccc2)CC1 [Example 33, (2-(3,8-diazabicyclo[3.2.1]octan-8-yl)-6,7-dihydrothiazolo[5,4-c]pyridin-5(4H)-yl)(1-phenylcyclopropyl)methanone] | 8 |
| O=C(CC1CCC2(CC1)COC2)N1CCc2nc(N3C4CCC3CNC4)sc2C1 [Example 155, 1-(2-(3,8-diazabicyclo[3.2.1]octan-8-yl)-6,7-dihydrothiazolo[5,4-c]pyridin-5(4H)-yl)-2-(2-oxaspiro[3.5]nonan-7-yl)ethan-1-one] | -3 |
| O=C(CCc1ccccc1)N1CCc2nc(N3C4CCC3CNC4)sc2C1 [Example 5, 1-(2-(3,8-diazabicyclo[3.2.1]octan-8-yl)-6,7-dihydrothiazolo[5,4-c]pyridin-5(4H)-yl)-3-phenylpropan-1-one] | -5 |
| CC(C)(Oc1ccccc1)C(=O)N1CCc2nc(N3C4CCC3CNC4)sc2C1 [Example 30, 1-(2-(3,8-diazabicyclo[3.2.1]octan-8-yl)-6,7-dihydrothiazolo[5,4-c]pyridin-5(4H)-yl)-2-methyl-2-phenoxypropan-1-one] | 1 |
